Literature values, collected in patent US20180179476A1, “SOLVENT COMPOSITIONS FOR USE AS HEPTANE REPLACEMENTS” (TBF ENVIRONMENTAL TECHNOLOGY INC., priority 2015, published 2018).

stability (in the presence of strong aqueous bases or aqueous acids): not stable
solubility in water (room temperature): 25%
Structure (SMILES): COC(C)=O [Methyl acetate]
